# Earlier results in PMC6311893, “Computational prediction of plasma protein binding of cyclic peptides from small molecule experimental data using sparse modeling techniques” (BMC Bioinformatics, 2018).
# System: plasma protein
# Details: fraction bound to plasma protein; small molecule dataset, sheet 1-SM (Set Dte = test, Dtr = training); ref Ingle et al.; cited from earlier work
row,Molecule,PPB (fb)
1,CCOC(=O)n1ccn(C)c1=S [carbimazole],0.07
2,N[C@@H](C(=O)N[C@@H]1C(=O)N2C(C(=O)O)=C(Cl)CS[C@H]12)c1ccccc1 [cefaclor],0.25
3,COc1ccc2c(c1)c(CC(=O)OCC(=O)O)c(C)n2C(=O)c1ccc(Cl)cc1 [acemetacin],0.9
4,NS(=O)(=O)Cc1noc2ccccc12 [zonisamide],0.4
5,CN1CCN(C(c2ccccc2)c2ccccc2)CC1 [cyclizine],0.6
6,CC(C(=O)O)c1ccc2oc(-c3ccc(Cl)cc3)nc2c1 (stereo not shown) [benoxaprofen],0.99
7,CC(=O)Nc1ccccc1 [acetanilide],0.07
8,O=C(NCC1CCCCN1)c1cc(OCC(F)(F)F)ccc1OCC(F)(F)F (stereo not shown) [Flecainide],0.5
9,CCN(CC)CCNC(=O)c1cc(Br)c(N)cc1OC [Bromopride],0.4
10,Clc1ccc(COC(Cn2ccnc2)c2ccc(Cl)cc2Cl)c(Cl)c1 (stereo not shown) [miconazole],0.95
11,CC(C)(Oc1ccc(C2CC2(Cl)Cl)cc1)C(=O)O (stereo not shown) [ciprofibrate],0.95
12,O=C(OCCN1CCCCCC1)C(c1ccsc1)C1CCCCC1 (stereo not shown) [Cetiedil],0.74
13,CCC1(c2ccc(N)cc2)CCC(=O)NC1=O (stereo not shown) [aminoglutethimide],0.24
14,O=C(O)c1cn(-c2cccc(O)c2)c2cc(N3CCNCC3)c(F)cc2c1=O [8b(m-OH)],0.35
15,Cc1cc2c(OCC(CNC(C)(C)C)OC(=O)c3ccccc3)cccc2[nH]1 (stereo not shown) [bopindolol],0.65
16,Nc1c(Br)cc(Br)cc1CN[C@H]1CC[C@H](O)CC1 [ambroxol],0.9

# Same assay, conditions: fraction bound to plasma protein; small molecule dataset, sheet 1-SM, Set Dtr; ref Ingle et al.; cited from earlier work
row,Molecule,PPB (fb)
1,O=C(O)CCNC(=O)c1ccccc1 [Betamipron],0.83
2,Nc1nc(NC2CC2)c2ncn([C@H]3C=C[C@@H](CO)C3)c2n1 [Abacavir],0.5
3,O=c1[nH]cnc2c1ncn2[C@H]1CC[C@@H](CO)O1 [Didanosine],0.04
4,CN1CCN(CCCN2c3ccccc3Sc3ccc(C(F)(F)F)cc32)CC1 [trifluoperazine],0.99
5,CC(=O)Oc1ccccc1C(=O)O [Aspirin],0.43
6,OCCN1CCN(CCCN2c3ccccc3Sc3ccc(Cl)cc32)CC1 [Perphenazine],0.92
7,Oc1ncnc2[nH]ncc12 [Allopurinol],0.02
8,COc1nc(C)nc(Cl)c1N=C1NCCN1 [Moxonidine],0.06
9,CC1CCCC(C)N1CCCC(O)(c1ccccc1)c1ccccn1 (stereo not shown) [Pirmenol],0.87
10,COc1cc2nc(N3CCN(C(=O)C4COc5ccccc5O4)CC3)nc(N)c2cc1OC (stereo not shown) [Doxazosin],0.97
11,C=CC(N)CCC(=O)O (stereo not shown) [vigabatrin],0
12,Cc1ccccc1N1C(=O)c2cc(S(N)(=O)=O)c(Cl)cc2NC1C (stereo not shown) [Metolazone],0.95
13,Cc1[nH]c(=O)c(C#N)cc1-c1ccncc1 [Milrinone],0.85
14,C=CCN1CC[C@]23c4c5ccc(O)c4O[C@H]2C(=O)CC[C@@]3(O)[C@H]1C5 [Naloxone],0.45
15,N[C@@H](C(=O)N[C@@H]1C(=O)N2C(C(=O)O)=C(CSc3c[nH]nn3)CS[C@H]12)c1ccc(O)cc1 [Cefatrizine],0.59

# Same assay, conditions: fraction bound to plasma protein; small molecule dataset, sheet 1-SM; ref Ingle et al.; cited from earlier work
row,Molecule,PPB (fb)
1,COc1cc2nc(N3CCN(C(=O)C4CCCO4)CC3)nc(N)c2cc1OC (stereo not shown) [Terazosin],0.91
2,CCC[C@H](N[C@@H](C)C(=O)N1[C@H](C(=O)O)C[C@@H]2CCCC[C@@H]21)C(=O)OCC [perindopril],0.6
3,CCCCNc1ccc(C(=O)OCCN(C)C)cc1 [tetracaine],0.85
4,Nc1nc(N)c2nc(-c3ccccc3)c(N)nc2n1 [Triamterene],0.59
5,C[C@]12CCC(=O)C=C1CC[C@H]1[C@@H]3CC[C@](O)(C(=O)CO)[C@@]3(C)C[C@H](O)[C@@]12F [fludrocortisone],0.75
6,C#C[C@]1(O)CC[C@H]2[C@@H]3[C@H](C)CC4=C(CCC(=O)C4)[C@H]3CC[C@@]21C [tibolone],0.96
7,CC(C(=O)O)c1ccc(N2Cc3ccccc3C2=O)cc1 (stereo not shown) [indoprofen],0.99
8,CC(C)(Oc1ccccc1)C(=O)NC1C(=O)N2C1SC(C)(C)C2C(=O)O (stereo not shown) [penicillin49],0.92
9,COc1ccc2c(c1)N(C[C@H](C)CN(C)C)c1ccccc1S2 [methotrimeprazine],0.98
10,COc1cc(Cc2cnc(N)nc2N)cc(OC)c1OC [Trimethoprim],0.46
11,CCOC(=O)[C@H](CCc1ccccc1)N[C@@H](C)C(=O)N1C(=O)N(C)C[C@H]1C(=O)O [imidapril],0.2
12,CCC(CC)OCC(=O)NC1C(=O)N2C1SC(C)(C)C2C(=O)O (stereo not shown) [penicillin8],0.47
13,[H]/N=C(/N)N/C(=N/[H])NCCc1ccccc1 [phenformin],0.16
14,Cc1ccc(S(=O)(=O)NC(=O)N[C@H]2[C@H]3CC[C@@](C)([C@H]2O)C3(C)C)cc1 [glibornuride],0.95
15,NS(=O)(=O)c1cc2c(cc1C(F)(F)F)NCNS2(=O)=O [hydroflumethiazide],0.75
16,CC[C@H]1OC(=O)[C@H](C)C(=O)[C@H](C)[C@@H](O[C@@H]2O[C@H](C)C[C@H](N(C)C)[C@H]2O)[C@](C)(OC)C[C@@H](C)C(=O)[C@H](C)[C@H]2N(CCCCn3cnc(-c4cccnc4)c3)C(=O)O[C@]12C [Telithromycin],0.59
17,CC(C)Cc1ccc(C(C)C(=O)NCCCN2CCCC2)cc1 (stereo not shown) [JMC_06],0.85
18,CC[C@@H]1C(=O)OC[C@@H]1Cc1cncn1C [Pilocarpine],0.01
19,CCN(CC)CCNC(=O)c1cc(S(C)(=O)=O)ccc1OC [tiapride],0
20,CC(C)(C)NC[C@H](O)COc1ccccc1C1CCCC1 [penbutolol],0.95
21,OCCN1CCN(CCCN2c3ccccc3C=Cc3ccccc32)CC1 [opipramol],0.9
22,CC(=O)C1CCC2C3CC=C4CC(O)CCC4(C)C3CCC12C (stereo not shown) [Pregnenolone],0.8
23,O=C(O)c1ccc(O)c(O)c1 [protocatechuic acid],0.21
24,Fc1ccc(C(c2ccc(F)cc2)N2CCN(C/C=C/c3ccccc3)CC2)cc1 [flunarizine],0.95

# Same assay, conditions: plasma; cited from earlier work
row,Molecule,PPB (fb)
1,Nc1c2c(nc3ccccc13)CCCC2 [Tacrine],0.65
2,CCCCCCCC(=O)NC1C(=O)N2C1SC(C)(C)C2C(=O)O (stereo not shown) [penicillin3],0.92
3,COc1ccc2c3c1O[C@H]1[C@@H](O)C=C[C@H]4[C@@H](C2)N(C)CC[C@@]341 [Codeine],0.21
4,Oc1cc(O)c2c(c1)O[C@H](c1ccc(O)c(O)c1)[C@H](O)[C@H]2c1c(O)cc(O)c2c1O[C@H](c1ccc(O)c(O)c1)[C@@H](O)C2 [procyanidin B1],0.73
5,O=NN(CCCl)C(=O)NCCCl [Carmustine (BCNU)],0.77
6,C=CCC1(C(C)C)C(=O)NC(=O)NC1=O [aprobarbital],0.62
7,COc1cccc(C2(O)CCCCC2CN(C)C)c1 (stereo not shown) [Tramadol],0.16
8,Clevidipine,1
9,Cefoperazone,0.92
10,CCC1(c2cccc(O)c2)CCCCN(C)C1 (stereo not shown) [Meptazinol],0.27
11,Oc1c(Cl)c(Cl)c(Cl)c(Cl)c1Cl [pentachlorophenol],0.99
12,CCOC(=O)C1(c2ccccc2)CCN(CCC(O)c2ccccc2)CC1 (stereo not shown) [phenoperidine],0.8
